This is an account of results in patent US8614206B2 (Genentech, Inc., priority 2011, dated 2013).

The term IC50 denotes the midpoint of a concentration-inhibition curve. Broadly, the Ki is the dissociation constant of the complex between target and ligand, obtained from inhibition or displacement. Lower therefore signals tighter binding. Broadly, the EC50 is the midpoint of the concentration-response curve.

Like-named read-outs stand apart in the source and are kept apart here.

One assay concerns BaF3 parental cells. Put plainly: In vitro cell proliferation, BaF3 parental line + IL3 (CellTiter-Glo). The following applies: Mus musculus, BaF3, BaF3 parental cells with IL-3, incubated overnight. It is filed as cell-based, murine. On the technique in general: In ATP-based viability assays light output follows the ATP content of the culture.
A further assay addresses PIM1 (Homo sapiens (Human), UniProt P11309). Put plainly: Pim kinase inhibition, PIM1 LC3K (Example 901). It is filed as biochemical.
Another assay deals with BaF3 PIM1 cells. Put plainly: cells. The following applies: Mus musculus.
Assay [1] relates to MM1.S (multiple myeloma) cells. As to the kind of experiment: In vitro cell proliferation, MM1.S multiple myeloma cells (CellTiter-Glo, ATP). The following applies: Homo sapiens, MM1.S, 72 h, read-out: Prolif MM1S ATP (EC50). The assay is classed as cell-based. Summed up:
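BaF3 parental cells (medium with 2 ng/mL mIL-3) seeded at 2 k/well and MM1.S at 10 k/well, then exposed to test compound at 37° C, 5% CO2: BaF3 overnight, MM1.S for 72 hours. Viability read by CellTiter-Glo; IC50/EC50 values calculated.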

Setting [2] is: read-out: Prolif BaF3 + IL3 (IC50).
Setting [3] is: BaF3, read-out: Prolif BaF3_PIM1 (IC50), BaF3 PIM1 cells, incubated overnight.
The mark [4] stands for this setting: read-out: Prolif BaF3 IL3 (IC50).
[5] abbreviates: BaF3, read-out: Prolif BaF3 PIM1 (IC50), BaF3 PIM1 cells, incubated overnight.

PIM1, sequence (P11309 whole entry): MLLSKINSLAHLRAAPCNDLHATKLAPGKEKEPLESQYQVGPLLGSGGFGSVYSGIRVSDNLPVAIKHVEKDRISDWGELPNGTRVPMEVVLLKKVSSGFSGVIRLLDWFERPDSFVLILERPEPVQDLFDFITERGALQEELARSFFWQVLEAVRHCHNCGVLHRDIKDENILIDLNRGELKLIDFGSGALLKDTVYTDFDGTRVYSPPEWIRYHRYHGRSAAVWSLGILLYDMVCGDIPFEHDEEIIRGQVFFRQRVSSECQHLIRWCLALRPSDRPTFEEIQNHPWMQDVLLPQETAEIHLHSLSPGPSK
Protocol for BaF3 PIM1 cells: BaF3 parental line was obtained from the DSMZ repository. BaF3 lines transfected with PIM 1 or PIM2 were generated. Mouse IL-3 was purchased from R&D Systems. G418 was purchased from Clontech. Media for BaF3 parental line contained RPMI, 10% FBS, 2 mM L-Glutamine, 2 ng/mL mIL-3. Media for BaF3 PIM1 & 2 lines contained RPMI, 10% FBS, 2 mM L-Glutamine, 250 μg/mL.
BaF3, a murine interleukin-3 dependent pro-B cell line, parental cells, BaF3 PIM1 cells, BaF3 PIM2 cells, and MM1.S (multiple myeloma) cells were seeded at 2 k/well, 5 k/well, 5 k/well, and 10 k/well respectively, in a 384-well plate, at 45 μL/well. Test compound was added at 5 μL/well. BaF3 cells (parental and transfected) were incubated overnight, while MM1.S cells were incubated for 72 hours at 37° C., 5% CO2. CELL TITER GLO® Reagent (Promega) was added at 50 μL/well, the plates were incubated for 30 minutes, and their luminescence read on an HT Analyst. IC50/EC50 values for the test compound were calculated.

Regarding `Cn1ncc(NC(=O)c2nc(-c3c(F)cncc3F)sc2N)c1N1CC[C@H](N)[C@@H](F)CC1` (racemic) [Example 439, 5-amino-N-(5-((4S,5S)-4-amino-5-fluoroazepan-1-yl)-1-methyl-1H-pyrazol-4-yl)-2-(3,5-difluoropyridin-4-yl)thiazole-4-carboxamide], the concentration for half-maximal inhibition (IC50) was 16200 nM in the assay with BaF3 parental cells (setting [2]) and 38.8 nM in the assay on BaF3 PIM1 cells (setting [3]). This compound yielded an inhibition constant Ki on PIM1 of 0.121 nM. For the same compound, the EC50 in assay [1] was determined as 3900 nM.

Consider `Cn1ncc(NC(=O)c2nc(-c3cccc(C#N)n3)sc2N)c1N1CC[C@@H](N)CC(F)(F)C1` [Example 461, 5-amino-N-[5-[(5R)-5-amino-3,3-difluoro-azepan-1-yl]-1-methyl-pyrazol-4-yl]-2-(6-cyano-2-pyridyl)thiazole-4-carboxamide], for which the IC50 with BaF3 parental cells (setting [2]) is 16600 nM; with BaF3 PIM1 cells (setting [3]), 39.7 nM. On PIM1, this compound yielded a Ki of 0.08 nM. In addition, the EC50 in assay [1] came to 211 nM.

Turning to `Cn1ncc(NC(=O)c2nc(-c3ccccc3F)sc2N)c1N1CCCC(C)(N)CC1` (racemic) [Example 412, 5-amino-N-[5-(4-amino-4-methyl-azepan-1-yl)-1-methyl-pyrazol-4-yl]-2-(2-fluorophenyl)thiazole-4-carboxamide], the IC50 with BaF3 parental cells (setting [2]) was 7100 nM; with BaF3 PIM1 cells (setting [3]) it was 1500 nM. The compound also had a Ki at PIM1 of 0.057 nM. Moreover, the concentration for a half-maximal effect (EC50) in assay [1] amounted to 1100 nM.

Regarding `Cn1ncc(NC(=O)c2nc(-c3ccncc3F)sc2N)c1N1CC[C@H](N)CC(F)(F)C1` (single isomer, unassigned) [Example 446], the IC50 in the assay on BaF3 parental cells (setting [2]) came to 23500 nM; in the assay with BaF3 PIM1 cells (setting [3]), 4.51 nM. Besides, on PIM1, the Ki came out at 0.01 nM. Moreover, the EC50 in assay [1] stood at 9200 nM.

Regarding `COC1(C)CC(N)CCN(c2c(NC(=O)c3nc(-c4ccncc4F)sc3N)cnn2C)C1` (stereo not shown) [Example 476, 5-amino-N-[5-(5-amino-3-methoxy-3-methyl-azepan-1-yl)-1-methyl-pyrazol-4-yl]-2-(3-fluoro-4-pyridyl)thiazole-4-carboxamide], the half-maximal inhibitory concentration (IC50) was 25000 nM with BaF3 parental cells (setting [2]) and 24.5 nM in the assay on BaF3 PIM1 cells (setting [3]). On PIM1, this compound returned an inhibition constant Ki of 0.013 nM. The EC50 in assay [1] was 872 nM.

With `Cn1ncc(NC(=O)c2nc(-c3c(F)cncc3F)sc2N)c1N1CC[C@@H](N)CC(F)(F)C1` [Example 455, 5-amino-N-[5-[(5R)-5-amino-3,3-difluoro-azepan-1-yl]-1-methyl-pyrazol-4-yl]-2-(3,5-difluoro-4-pyridyl)thiazole-4-carboxamide], the half-maximal inhibitory concentration (IC50) in the assay on BaF3 parental cells (setting [2]) was 3900 nM; in the assay on BaF3 PIM1 cells (setting [3]), 2.57 nM. Also, the Ki at PIM1 was 0.009 nM. In addition, the EC50 in assay [1] turned out to be 221 nM.

Regarding `Cc1c(-c2nc(C(=O)Nc3cnn(C)c3N3CCC(N)CC(F)(F)C3)c(N)s2)cnn1C` (stereo not shown) [Example 460, 5-amino-N-[5-(5-amino-3,3-difluoro-azepan-1-yl)-1-methyl-pyrazol-4-yl]-2-(1,5-dimethylpyrazol-4-yl)thiazole-4-carboxamide], the IC50 was above 25000 nM in the assay on BaF3 parental cells (setting [2]) and 36.4 nM in the assay on BaF3 PIM1 cells (setting [3]). This compound had a Ki on PIM1 of 0.026 nM. Moreover, the EC50 in assay [1] is 215 nM.

For `Cn1ncc(NC(=O)c2nc(-c3ccncc3F)sc2N)c1N1CC[C@@H](N)CC(F)(F)C1` [Example 447, 5-amino-N-[5-[(5R)-5-amino-3,3-difluoro-azepan-1-yl]-1-methyl-pyrazol-4-yl]-2-(3-fluoro-4-pyridyl)thiazole-4-carboxamide], the IC50 in the assay with BaF3 parental cells (setting [2]) came out at 12900 nM; in the assay on BaF3 PIM1 cells (setting [3]) it was 6.97 nM. The same compound had a Ki at PIM1 of 0.014 nM. In addition, the EC50 in assay [1] turned out to be 571 nM.

In the case of `COC1(C)CC(N)CCN(c2c(NC(=O)c3nc(-c4c(F)cncc4F)sc3N)cnn2C)C1` (stereo not shown) [Example 473, 5-amino-N-[5-(5-amino-3-methoxy-3-methyl-azepan-1-yl)-1-methyl-pyrazol-4-yl]-2-(3,5-difluoro-4-pyridyl)thiazole-4-carboxamide], the IC50 was determined as 25000 nM with BaF3 parental cells (setting [2]) and 41.1 nM with BaF3 PIM1 cells (setting [3]). The Ki at PIM1 is 0.009 nM. The concentration giving a half-maximal response (EC50) in assay [1] was 248 nM.

On to `Cc1ccc(F)c(-c2nc(C(=O)Nc3cnn(C4CC4)c3N3CCC(N)C(F)CC3)c(N)s2)c1` (stereo not shown) [Example 329, 5-amino-N-[5-(4-amino-5-fluoro-azepan-1-yl)-1-cyclopropyl-pyrazol-4-yl]-2-(2-fluoro-5-methyl-phenyl)thiazole-4-carboxamide], for which the IC50 was 4600 nM in the assay with BaF3 parental cells (setting [2]) and 1300 nM in the assay with BaF3 PIM1 cells (setting [3]). At PIM1, the Ki came out at 0.248 nM. Also, the EC50 in assay [1] worked out at 2800 nM.

Regarding `Cn1ncc(NC(=O)c2nc(-c3c(F)cccc3F)sc2N)c1N1CCC(N)C2(CCO2)CC1` (stereo not shown) [Example 510, 5-amino-N-[5-(5-amino-1-oxa-8-azaspiro[3.6]decan-8-yl)-1-methyl-pyrazol-4-yl]-2-(2,6-difluorophenyl)thiazole-4-carboxamide], the IC50 worked out at 22000 nM in the assay on BaF3 parental cells (setting [2]) and 623 nM in the assay on BaF3 PIM1 cells (setting [3]). Besides, the Ki on PIM1 was found to be 0.095 nM. Also, the EC50 in assay [1] turned out to be 5600 nM.

Consider `COc1cc(F)c(-c2nc(C(=O)Nc3cnn(C)c3N3CCC(N)CC(F)(F)C3)c(N)s2)c(F)c1` (stereo not shown) [Example 459, 5-amino-N-[5-(5-amino-3,3-difluoro-azepan-1-yl)-1-methyl-pyrazol-4-yl]-2-(2,6-difluoro-4-methoxy-phenyl)thiazole-4-carboxamide], for which the results for the IC50 with BaF3 parental cells (setting [2]) and in the assay with BaF3 PIM1 cells (setting [3]) were 7500 nM and 6.84 nM, respectively. The compound also had a Ki at PIM1 of 0.006 nM. The EC50 in assay [1] was 492 nM.

In the case of `Cn1ncc(NC(=O)c2nc(-c3c(F)ccc(C4CC4)c3F)sc2N)c1N1CCC[C@@H](N)CC1` [Example 115, (R)-5-amino-N-(5-(4-aminoazepan-1-yl)-1-methyl-1H-pyrazol-4-yl)-2-(3-cyclopropyl-2,6-difluorophenyl)thiazole-4-carboxamide], the IC50 in the assay on BaF3 parental cells (setting [4]) came out at 5800 nM; in the assay on BaF3 PIM1 cells (setting [5]) it was 86.3 nM. On PIM1, the Ki turned out to be 0.015 nM. Also, in assay [1], the EC50 turned out to be 420 nM.

As for `COC1CCN(c2c(NC(=O)c3nc(-c4ccccn4)sc3N)cnn2C)CCC1N` (racemic) [Example 322, 5-amino-N-[5-(4-amino-5-methoxy-azepan-1-yl)-1-methyl-pyrazol-4-yl]-2-(2-pyridyl)thiazole-4-carboxamide], the IC50 in the assay on BaF3 parental cells (setting [2]) was above 25000 nM; in the assay on BaF3 PIM1 cells (setting [3]), 1400 nM. Also, the Ki on PIM1 came to 0.833 nM. Further, the EC50 in assay [1] worked out at 123 nM.

In the case of `COC1(C)CC(N)CCN(c2c(NC(=O)c3nc(-c4c(F)cncc4F)sc3N)cnn2C)C1` (racemic) [Example 440, 5-amino-N-[5-(5-amino-3-methoxy-3-methyl-azepan-1-yl)-1-methyl-pyrazol-4-yl]-2-(3,5-difluoro-4-pyridyl)thiazole-4-carboxamide], the figures for the IC50 in the assay on BaF3 parental cells (setting [2]) and with BaF3 PIM1 cells (setting [3]) were above 25000 nM and 15.2 nM, respectively. On PIM1, this compound showed a Ki of 0.024 nM. Further, the EC50 in assay [1] was 77.4 nM.

Take `CN[C@@H]1CCCN(c2c(NC(=O)c3nc(-c4c(F)cccc4F)sc3N)cnn2CC(F)F)CC1` [Example 107, (R)-5-Amino-N-(1-(2,2-difluoroethyl)-5-(4-(methylamino)azepan-1-yl)-1H-pyrazol-4-yl)-2-(2,6-difluorophenyl)thiazole-4-carboxamide]: the half-maximal inhibitory concentration (IC50) with BaF3 parental cells (setting [4]) was 5100 nM; in the assay with BaF3 PIM1 cells (setting [5]) it was 157 nM. The Ki on PIM1 came to 0.079 nM. Besides, the EC50 in assay [1] was found to be 388 nM.
